These results are taken from US9044013B2, “Glyoxime derivative and pest control agent” (KUMIAI CHEMICAL INDUSTRY CO., LTD., priority 2011, dated 2015).

One may read the mortality as the percentage killed.

This assay concerns Nilaparvata lugens Stál (brown rice planthopper). Put plainly: Insecticidal action test for Nilaparvata lugens Stál (brown rice planthopper) (immersion test). It counts as in vivo. The settings on record: 144 h, 500 ppm active ingredient (wettable powder diluted with water), sprouting unhulled rice immersed, 10 2-age larvae, 25° C., after 6 days, no repetition, read-out: insect mortality. On the procedure: Insecticidal action test for Nilaparvata lugens Stál (Brown Rice Planthopper) (Immersion Test)
A wettable powder prepared based on Formulation Example 2 was diluted with water so that the concentration of active ingredient became 500 ppm. In the diluted liquid was immersed sprouting unhulled rice. The immersed rice was placed in a plastic cup of 60 ml. Into the plastic cup were released 10 2-age larvae of Nilaparvata lugens Stál (brown rice planthopper). The cup was covered with a cap and placed in a thermostat of 25° C. After 6 days, the number of living insects was counted and the mortality of insect was calculated using the calculation formula of Mathematical Expression 1. This test was conducted with no repetition. Insect mortality(%)=[1−(number of living insects)/(number of tested insects)]×100 [Mathematical Expression 1]
The compound Nos. of the compounds which gave an insect mortality of 90% or higher in the above test, are shown below.
As to `CC(C)ON=C(C#N)C(N)=NO` [1-004, 3-amino-3-hydroxyimino-2-isopropoxyiminopropionitrile], the mortality at 500 ppm is at least 90%.

With `CCCON=C(N)C(C#N)=NOCCC` [1-072, 3-Amino-2,3-Bis(Propoxyimino)Propionitrile], the mortality at 500 ppm was at least 90%.

Take `CCCON=C(N)C(C#N)=NOC(C)C` [1-073, 3-amino-2-isopropoxyimino-3-propoxyiminopropionitrile]: the mortality at 500 ppm is at least 90%.

Turning to `CC(C)ON=C(N)C(C#N)=NOC(C)C` [1-096, 3-amino-2,3-bis(isopropoxyimino)propionitrile], the mortality at 500 ppm is at least 90%.
